Results reported in ChEMBL document CHEMBL5360631, “Creation of a Peptide Antagonist of the GFRAL-RET Receptor Complex for the Treatment of GDF15-Induced Malaise” (J Med Chem, 2023).
Each block holds one molecule with its values, some of them ahead of it. The source made the active and inactive calls. No cut-off for these calls is given here. Numbered stars: 1 amine (or outer) side, 2 acyl side, 3 side chain; on linkers, the order of the positions; unused ones are H or OH. Square brackets hold non-standard residues; d marks the D form. Side chains are listed from the residue outwards. Peptide text beside a SMILES is read from it. * marks the point of attachment. X4 = CN1/C(=C/C=C/C=C/C2=[N+](CCCCCC(=O)*)c3ccc(S(=O)(=O)[O-])cc3C2(C)C)C(C)(C)c2cc(S(=O)(=O)O)ccc21; X3 = C[C@@H](O)[C@@H](C(=O)[*:2])N(CCCn1nnc2c1-c1ccccc1CN([*:3])c1ccccc1-2)[*:1]; Biotin = O=C1N[C@H]2[C@H](CS[C@H]2CCCCC(=O)*)N1; GABA = NCCCC(=O)O

Tests used:
[1] = target: T1, GDNF family receptor alpha-like (Homo sapiens, UniProt Q6UXV0); assay: Binding affinity to C-terminal polyhis-tagged recombinant human GFRAL (19 to 351 residues) expressed in HEK293 cells assessed as dissociation constant with increasing enzyme concentration by SPR analysis
T1 sequence (Q6UXV0 whole entry): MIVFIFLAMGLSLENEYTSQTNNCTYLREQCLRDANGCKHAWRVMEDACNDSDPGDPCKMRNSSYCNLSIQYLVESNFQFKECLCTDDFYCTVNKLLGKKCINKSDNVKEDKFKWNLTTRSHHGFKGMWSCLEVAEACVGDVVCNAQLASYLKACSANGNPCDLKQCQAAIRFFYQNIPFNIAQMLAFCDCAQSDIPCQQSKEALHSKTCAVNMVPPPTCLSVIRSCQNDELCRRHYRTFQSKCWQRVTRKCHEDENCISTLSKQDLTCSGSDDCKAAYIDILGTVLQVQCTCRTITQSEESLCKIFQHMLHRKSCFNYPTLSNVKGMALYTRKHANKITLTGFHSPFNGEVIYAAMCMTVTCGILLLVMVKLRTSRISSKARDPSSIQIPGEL

[2] = system: Rattus norvegicus; assay: Effect on pica behaviour in Sprague-Dawley rat assessed as reduction in GDF-15-induced kaolin intake at 100 nmol/kg pretreated intraperitoneally followed by GDF-15 treatment measured for 24 hrs; assay type: functional; settings: route ip
[3] = Toxicity in Sprague-Dawley rat assessed as food intake at 300 to 3000 pmol, ICV measured for 24 hrs; settings: in vivo, icv_or_intrathecal, dose 300-3000 pmol
[4] = system: Rattus norvegicus; assay: Effect on pica behaviour in Sprague-Dawley rat assessed as kaolin intake at 100 nmol/kg, IP measured for 24 hrs in presence of Ondansetron; assay type: functional
[5] = system: Rattus norvegicus; assay: Effect on pica behaviour in Sprague-Dawley rat assessed as reduction in cisplatin-induced kaolin intake at 2 mg/kg, IP measured for 24 hrs; assay type: functional, organism-based
[6] = system: Rattus norvegicus; assay: Effect on pica behaviour in Sprague-Dawley rat assessed as reduction in GDF-15-induced kaolin intake pretreated intracerebroventricularly followed by GDF-15 treatment measured for 24 hrs; assay type: functional; settings: dose 300-3000 pmol, route icv
[7] = system: Rattus norvegicus; assay: Effect on pica behaviour in Sprague-Dawley rat assessed as reduction in cisplatin-induced anorexia at 100 nmol/kg, IP bid measured for 24 hrs in presence of Ondansetron; assay type: functional
[8] = Toxicity in Sprague-Dawley rat assessed as drug tolerance at 100 nmol/kg, IP measured for 24 hrs in presence of Ondansetron; settings: in vivo
[9] = system: Rattus norvegicus; assay: Effect on pica behaviour in Sprague-Dawley rat assessed as food intake at 100 nmol/kg, IP measured for 24 hrs in presence of Ondansetron; assay type: functional
[10] = system: Rattus norvegicus; assay: Effect on GDF-15-induced anorexia in Sprague-Dawley rat at 300 to 3000 pmol pre-treated intracerebroventricularly followed by GDF-15 treatment measured for 24 hrs; assay type: functional; settings: dose 300-3000 pmol, route icv
[11] = system: Rattus norvegicus; assay: Effect on pica behaviour in Sprague-Dawley rat assessed as reduction in cisplatin-induced kaolin intake at 100 nmol/kg, IP pretreated for 15 mins followed by cisplatin treatment measured for 6 hrs; assay type: functional; settings: time 6.25 hrs
[12] = system: Rattus norvegicus; assay: Effect on pica behaviour in Sprague-Dawley rat assessed as reduction in cisplatin-induced kaolin intake at 100 nmol/kg, IP bid measured for 24 hrs; assay type: functional
[13] = system: Rattus norvegicus; assay: Effect on pica behaviour in Sprague-Dawley rat assessed as food intake at 100 nmol/kg, IP measured for 24 hrs; assay type: functional
[14] = Toxicity in Sprague-Dawley rat assessed as kaolin intake at 30 to 100 nmol/kg, IP measured for 24 hrs; settings: in vivo, dose 30-100 nmol/kg
[15] = Toxicity in Sprague-Dawley rat assessed as food intake at 100 nmol/kg, IP measured for 24 hrs; settings: in vivo
[16] = Toxicity in Sprague-Dawley rat assessed as food intake at 30 to 100 nmol/kg, IP measured for 24 hrs; settings: in vivo, dose 30-100 nmol/kg
[17] = system: Rattus norvegicus; assay: Effect on GDF-15-induced anorexia in Sprague-Dawley rat at 30 to 100 nmol/kg pretreated intraperitoneally followed by GDF-15 treatment measured for 24 hrs; assay type: functional; settings: dose 30-100 nmol/kg, route ip
[18] = Toxicity in Sprague-Dawley rat assessed as drug tolerance at 100 nmol/kg, IP measured for 24 hrs; settings: in vivo
[19] = system: Rattus norvegicus; assay: Effect on pica behaviour in Sprague-Dawley rat assessed as kaolin intake at 100 nmol/kg, IP measured for 24 hrs; assay type: functional
[20] = Toxicity in Sprague-Dawley rat assessed as kaolin intake at 100 nmol/kg, IP measured for 24 hrs; settings: in vivo
[21] = Toxicity in Sprague-Dawley rat assessed as kaolin intake at 300 to 3000 pmol, ICV measured for 24 hrs; settings: in vivo, icv_or_intrathecal, dose 300-3000 pmol
[22] = Toxicity in cisplatin-induced nausea and vomiting Sprague-Dawley rat model assessed as additive effect at 100 nmol/kg, IP bid measured for 24 hrs in presence of Ondansetron; settings: in vivo
[23] = target: T1, GDNF family receptor alpha-like; assay: Binding affinity to C-terminal polyhis-tagged recombinant human GFRAL (19 to 351 residues) expressed in HEK293 cells assessed as dissociation constant by SPR analysis
[24] = target: T1, GDNF family receptor alpha-like; assay: Binding affinity to C-terminal polyhis-tagged recombinant human GFRAL (19 to 351 residues) expressed in HEK293 cells assessed as dissociation constant by flow cytometric analysis; assay type: cell-based

- Kd [1]: 74.1 nM
SMILES: CC[C@H](C)[C@H](NC(=O)[C@H](CC(C)C)NC(=O)[C@H](CCC(=O)O)NC(=O)[C@H](CCC(=O)O)NC(=O)[C@H](CCCCN)NC(=O)[C@@H](NC(=O)CCCC[C@@H]1SC[C@@H]2NC(=O)N[C@@H]21)[C@@H](C)O)C(=O)N[C@@H](Cc1c[nH]cn1)C(=O)N[C@@H](C)C(=O)N[C@@H](Cc1c[nH]cn1)C(=O)N[C@@H](C)C(=O)N[C@@H](CC(=O)O)C(=O)N1CCC[C@H]1C(=O)N[C@@H](CCSC)C(=O)N[C@H](C(=O)N[C@@H](CC(C)C)C(=O)N[C@H](C(=O)N[C@@H](CCC(N)=O)C(=O)N[C@@H](CCCCN)C(=O)N[C@H](C(=O)N[C@@H](CC(=O)O)C(=O)N[C@H](C(=O)NCC(=O)N[C@H](C(=O)N[C@@H](CO)C(=O)N[C@@H](CC(C)C)C(=O)N[C@@H](CCC(N)=O)C(=O)N[C@H](C(=O)N[C@@H](Cc1ccc(O)cc1)C(=O)N[C@@H](CC(=O)O)C(=O)O)[C@@H](C)O)C(C)C)[C@@H](C)O)[C@@H](C)O)[C@@H](C)CC)C(C)C (Biotin-TKEELIHAHADPMVLIQKTDTGVSLQTYD-OH)

- Kd [23]: 179000 nM
SMILES: CC[C@H](C)[C@H](NC(=O)[C@H](CC(C)C)NC(=O)[C@H](CCC(=O)O)NC(=O)[C@H](CCC(=O)O)NC(=O)[C@H](CCCCN)NC(=O)[C@@H](N)[C@@H](C)O)C(=O)N[C@@H](Cc1c[nH]cn1)C(=O)N[C@@H](C)C(=O)N[C@@H](Cc1c[nH]cn1)C(=O)N[C@@H](C)C(=O)N[C@@H](CC(=O)O)C(=O)N1CCC[C@H]1C(=O)N[C@@H](CCSC)C(=O)N[C@H](C(=O)N[C@@H](CC(C)C)C(=O)N[C@H](C(=O)N[C@@H](CCC(N)=O)C(=O)N[C@@H](CCCCN)C(=O)N[C@H](C(=O)N[C@@H](CC(=O)O)C(=O)N[C@H](C(=O)NCC(=O)N[C@H](C(=O)N[C@@H](CO)C(=O)N[C@@H](CC(C)C)C(=O)N[C@@H](CCC(N)=O)C(=O)N[C@H](C(=O)N[C@@H](Cc1ccc(O)cc1)C(=O)N[C@@H](CC(=O)O)C(=O)O)[C@@H](C)O)C(C)C)[C@@H](C)O)[C@@H](C)O)[C@@H](C)CC)C(C)C (H-TKEELIHAHADPMVLIQKTDTGVSLQTYD-OH)
- Activity [2]: Active
- Activity [3]: Non-Toxic
- Activity [4]: inactive
- Activity [5]: Active
- Activity [6]: Active
- Activity [7]: Active
- Activity [8]: Non-Toxic
- Activity [9]: inactive
- Activity [10]: inactive
- Activity [11]: Active
- Activity [12]: Active
- Activity [13]: inactive
- Activity [14]: Non-Toxic
- Activity [15]: Non-Toxic
- Activity [16]: Non-Toxic
- Activity [17]: inactive
- Activity [18]: Non-Toxic
- Activity [19]: inactive
- Activity [20]: Non-Toxic
- Activity [21]: Non-Toxic
- Activity [22]: Non-Toxic

SMILES: CC[C@H](C)[C@H](NC(=O)[C@H](CC(C)C)NC(=O)[C@H](CCC(=O)O)NC(=O)[C@H](CCC(=O)O)NC(=O)[C@H](CCCCN)NC(=O)[C@@H](NCCCn1nnc2c1-c1ccccc1CN(C(=O)CCCNC(=O)CCCCC[N+]1=C(/C=C/C=C/C=C3/N(C)c4ccc(S(=O)(=O)O)cc4C3(C)C)C(C)(C)c3cc(S(=O)(=O)[O-])ccc31)c1ccccc1-2)[C@@H](C)O)C(=O)N[C@@H](Cc1c[nH]cn1)C(=O)N[C@@H](C)C(=O)N[C@@H](Cc1c[nH]cn1)C(=O)N[C@@H](C)C(=O)N[C@@H](CC(=O)O)C(=O)N1CCC[C@H]1C(=O)N[C@@H](CCSC)C(=O)N[C@H](C(=O)N[C@@H](CC(C)C)C(=O)N[C@H](C(=O)N[C@@H](CCC(N)=O)C(=O)N[C@@H](CCCCN)C(=O)N[C@H](C(=O)N[C@@H](CC(=O)O)C(=O)N[C@H](C(=O)NCC(=O)N[C@H](C(=O)N[C@@H](CO)C(=O)N[C@@H](CC(C)C)C(=O)N[C@@H](CCC(N)=O)C(=O)N[C@H](C(=O)N[C@@H](Cc1ccc(O)cc1)C(=O)N[C@@H](CC(=O)O)C(=O)O)[C@@H](C)O)C(C)C)[C@@H](C)O)[C@@H](C)O)[C@@H](C)CC)C(C)C (H-[X3]([GABA-X4])KEELIHAHADPMVLIQKTDTGVSLQTYD-OH)
- Kd [24]: 8.98 nM
